Results: patent US20250032524A1, “BROAD SPECTRUM AMINOGLYCOSIDES AND USES THEREOF” (REVAGENIX, INC., priority 2022, published 2025)
Where two headings read alike, the source gives them in different places.

Legend:
Type in all cases: cell-based
[1] = system: AG-resistant P. aeruginosa; assay: Antibacterial surveillance of clinical isolates (MIC50/90); settings: Pseudomonas aeruginosa, 50 isolates with defined aminoglycoside resistance
Experimental: (§1) Minimum inhibitory concentrations for representative example compounds herein were determined by a broth microdilution method in accordance with the Clinical and Laboratory Standards Institute (CLSI) guidelines. In brief, organism suspensions were adjusted to a 0.5 McFarland standard to yield a final inoculum between 3×10^5 and 7×10^5 colony-forming units (CFU)/mL. The inoculum was prepared by suspension of a colony from an agar plate that was prepared the previous day. Compound dilutions and inoculum were prepared in sterile, cation adjusted Mueller-Hinton Broth (Beckton Dickinson).
(§2) Bacteria were suspended in sterile saline and added to each assay plate to obtain a final concentration of 5×10^5 CFU/mL. An inoculum volume of 100 μL was added to wells containing 100 μL of broth with 2-fold serial dilutions of the test compound. All inoculated microdilution trays were incubated in ambient air at 35° C. for 18-24 hours. Following incubation, the lowest concentration of the compound that prevented visible growth (OD 600 nm<0.05) is recorded was the MIC. […] Performance of the assay was monitored by the use of laboratory quality-control strains and a standard compound with a defined MIC spectrum (neomycin), in accordance with CLSI guidelines.
(§3) Several compounds of the disclosure (Compound 1, 2, and 3) were further evaluated against several hundred bacterial isolates (isolated in the United States and Europe, 1:1) selected from the SENTRY Antimicrobial Surveillance Program (JMI Laboratories, North Liberty, Iowa). The set of clinical isolates included 300 randomly selected Enterobacterales, 103 randomly selected P. aeruginosa, 100 randomly selected A. baumannii-calcoaceticus, 20 randomly selected Methicillin-sensitive S. aureus (MSSA), and 30 randomly selected Methicillin-resistant S. aureus (MRSA). In addition, 101 Enterobacterales and 50 P. aeruginosa isolates with genetically defined mechanisms of aminoglycoside resistance were included. The MIC values at which ≥50% (MIC50) and ≥90% (MIC90) of isolates within a given set are inhibited were determined for each compound against each set of organisms.

[2] = system: A. baumannii-calcoaceticus; assay: as above; settings: 100 isolates
Experimental: as §1, §2, §3

Enterobacterales = assay: as above
Experimental: as §1, §2, §3

[3] = system: Methicillin-resistant S. aureus (MRSA); assay: as above; settings: Staphylococcus aureus, MRSA, 30 isolates
Experimental: as §1, §2, §3

[4] = system: Methicillin-sensitive S. aureus (MSSA); assay: as above; settings: Staphylococcus aureus, MSSA, 20 isolates
Experimental: as §1, §2, §3

P. aeruginosa [5] = assay: as above; settings: Pseudomonas aeruginosa, 103 isolates
Experimental: as §1, §2, §3

[6] = system: AG-resistant Enterobacterales; assay: as above
Experimental: as §1, §2, §3

[7] = system: clinical isolates of multi-drug resistant bacterial pathogens including A. baumannii, MRSA, P. aeruginosa, and CRE; assay: MIC secondary panel, overall statement; settings: read-out: minimum inhibitory concentration (MIC) values
Experimental: as §1, §2
Several compounds of the disclosure (Compounds 1, 2, 3, and 6) were further evaluated against a secondary panel of clinical isolates of multi-drug resistant bacterial pathogens including A. baumannii, methicillin-resistant Staphylococcus aureus (MRSA), P. aeruginosa, and carbapenem-resistant Enterobacteriaceae (CRE).

[8] = system: all sets of organisms tested (SENTRY clinical isolates); assay: Antibacterial surveillance, overall statement; settings: all sets of organisms tested (Table 3); read-out: MIC50,90 values
Experimental: as §1, §2
as §3, with “The MIC values at which ≥50% (MIC50) and ≥90% (MIC90) of isolates within a given set are inhibited were determined for each compound against each set of organisms.” left out

E. coli = assay: MIC broth microdilution (CLSI); settings: Escherichia coli
Procedure, shortened: (§4)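 2-fold serially diluted compound in cation-adjusted MHB, inoculated at 5×10^5 CFU/mL from 0.5 McFarland suspensions. Incubation: 35° C., ambient air, 18-24 hours. Endpoint: no visible growth (OD 600 nm<0.05); assay controlled with CLSI quality-control strains and neomycin.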

K. aerogenes = assay: MIC broth microdilution (CLSI); settings: Klebsiella aerogenes; strain AEAE1042, MDR Clinical isolate (CDC CRE panel), CDC AR Bank 0161
Procedure, shortened: as §4

K. pneumoniae = assay: MIC broth microdilution (CLSI)
Procedure, shortened: as §4

E. cloacae = assay: MIC broth microdilution (CLSI); settings: Enterobacter cloacae; strain AECL1089, MDR Clinical isolate (CDC CRE panel), CDC AR Bank 0154
Procedure, shortened: as §4

A. baumannii = assay: MIC broth microdilution (CLSI); settings: Acinetobacter baumannii
Procedure, shortened: as §4

P. aeruginosa [9] = assay: MIC broth microdilution (CLSI); settings: Pseudomonas aeruginosa
Procedure, shortened: as §4

SMILES: NC[C@@H]1CC[C@@H](N)[C@@H](O[C@@H]2[C@@H](N)[C@H](O)[C@@H](NC(=O)[C@@H](O)[C@H](F)CN)[C@H](O)[C@H]2O[C@@H]2O[C@H](CO)[C@@H](O[C@H]3O[C@@H](CN)[C@@H](O)[C@H](O)[C@H]3N)[C@H]2O)O1 [Compound 1, (2R,3R)-4-amino-N-((1R,2S,3S,4R,5R,6S)-3-amino-5-(((2S,3R,4S,5R)-4-(((2R,3R,4R,5S,6S)-3-amino-6-(aminomethyl)-4,5-dihydroxytetrahydro-2H-pyran-2-yl)oxy)-3-hydroxy-5-(hydroxymethyl)tetrahydrofuran-2-yl)oxy)-4-(((2R,3R,6S)-3-amino-6-(aminomethyl)tetrahydro-2H-pyran-2-yl)oxy)-2,6-dihydroxycyclohexyl)-3-fluoro-2-hydroxybutanamide]
- MIC50 ([1]; read-out: MIC50): < 16 µg/mL
- MIC90 ([1]; read-out: MIC90): < 16 µg/mL
- MIC50 ([2]; read-out: MIC50): < 16 µg/mL
- MIC90 ([2]; read-out: MIC90): < 16 µg/mL
- MIC50 (Enterobacterales): < 16 µg/mL
- MIC90 (Enterobacterales): < 16 µg/mL
- MIC50 ([3]; read-out: MIC50): < 16 µg/mL
- MIC90 ([3]; read-out: MIC90): < 16 µg/mL
- MIC50 ([4]; read-out: MIC50): < 16 µg/mL
- MIC90 ([4]; read-out: MIC90): < 16 µg/mL
- MIC50 (P. aeruginosa [5]; read-out: MIC50): < 16 µg/mL
- MIC90 (P. aeruginosa [5]; read-out: MIC90): < 16 µg/mL
- MIC50 [6]: < 16 µg/mL
- MIC90 [6]: < 16 µg/mL
- MIC [7]: ≤ 16 µg/mL
- MIC50 [8]: ≤ 16 µg/mL
- MIC (E. coli; read-out: Activity (MIC), strain AECO1225, MDR Clinical isolate (CDC CRE panel), CDC AR Bank 0118): < 16 µg/mL
- MIC (E. coli; read-out: Activity (MIC), strain AECO1226, MDR Clinical isolate (CDC CRE panel), CDC AR Bank 0119): < 16 µg/mL
- MIC (E. coli; read-out: Activity (MIC), strain AECO1227, MDR Clinical isolate (CDC CRE panel), CDC AR Bank 0128): < 16 µg/mL
- MIC (E. coli; read-out: Activity (MIC), strain NECO0003, ΔtolC): < 16 µg/mL
- MIC (E. coli; read-out: Activity (MIC), strain NECO0245, ArmA): < 16 µg/mL
- MIC (E. coli; strain NECO0001, WT QC, read-out: Activity (MIC)): < 16 µg/mL
- MIC (E. coli; strain NECO0002, WT, read-out: Activity (MIC)): < 16 µg/mL
- MIC (E. coli; strain NECO0243, empty vector, read-out: Activity (MIC)): < 16 µg/mL
- MIC (E. coli; strain NECO0244, AAC(6')-Ib, read-out: Activity (MIC)): < 16 µg/mL
- MIC (E. coli; strain NECO0289, APH(3')-Ia, read-out: Activity (MIC)): < 16 µg/mL
- MIC (E. coli; strain NECO0302, AAC(3)-IIa, read-out: Activity (MIC)): < 16 µg/mL
- MIC (E. coli; strain NECO0350, AAC(2')-I, read-out: Activity (MIC)): < 16 µg/mL
- MIC (E. coli; strain NECO0359, ANT(4')-Ia, read-out: Activity (MIC)): < 16 µg/mL
- MIC (K. aerogenes): < 16 µg/mL
- MIC (K. pneumoniae; Klebsiella pneumoniae, strain AKPN1246, MDR Clinical isolate (CDC CRE panel), CDC AR Bank 0139): < 16 µg/mL
- Activity (MIC) (K. pneumoniae; strain AKPN1250, MDR Clinical isolate (CDC CRE panel), CDC AR Bank 0143): + (MIC threshold for positive activity (+) is ≤16 μg/mL)
- Activity (MIC) (K. pneumoniae; strain AKPN1253, MDR Clinical isolate (CDC CRE panel), CDC AR Bank 0148): + (MIC threshold for positive activity (+) is ≤16 μg/mL)
- Activity (MIC) (K. pneumoniae; strain AKPN1255, MDR Clinical isolate (CDC CRE panel), CDC AR Bank 0153): + (MIC threshold for positive activity (+) is ≤16 μg/mL)
- MIC (E. cloacae): < 16 µg/mL
- MIC (A. baumannii; read-out: Activity (MIC), strain NABA0007, ΔadeJK efflux): < 16 µg/mL
- MIC (A. baumannii; read-out: Activity (MIC), strain NABA1427, MDR Clinical isolate): < 16 µg/mL
- MIC (A. baumannii; read-out: Activity (MIC), strain NABA1433, MDR Clinical isolate): < 16 µg/mL
- MIC (A. baumannii; read-out: Activity (MIC), strain NABA1434, MDR Clinical isolate): < 16 µg/mL
- MIC (A. baumannii; read-out: Activity (MIC), strain NABA1436, MDR Clinical isolate): < 16 µg/mL
- MIC (A. baumannii; read-out: Activity (MIC), strain NABA1437, MDR Clinical isolate): < 16 µg/mL
- MIC (A. baumannii; read-out: Activity (MIC), strain NABA1438, MDR Clinical isolate): < 16 µg/mL
- MIC (A. baumannii; read-out: Activity (MIC), strain NABA1439, MDR Clinical isolate): < 16 µg/mL
- MIC (A. baumannii; read-out: Activity (MIC), strain NABA1448, MDR Clinical isolate): < 16 µg/mL
- MIC (A. baumannii; read-out: Activity (MIC), strain NABA1449, MDR Clinical isolate): < 16 µg/mL
- MIC (A. baumannii; read-out: Activity (MIC), strain NABA1450, MDR Clinical isolate): < 16 µg/mL
- MIC (A. baumannii; strain NABA0006, WT parent, read-out: Activity (MIC)): < 16 µg/mL
- MIC (A. baumannii; strain NABA0020, AME negative strain, read-out: Activity (MIC)): < 16 µg/mL
- MIC (P. aeruginosa [9]; read-out: Activity (MIC), strain NPAE0006, Efflux KO, Aph(3')-IIb): < 16 µg/mL
- MIC (P. aeruginosa [9]; read-out: Activity (MIC), strain NPAE0010, MexXY over-expressed, Aph(3')-IIb): < 16 µg/mL
- MIC (P. aeruginosa [9]; read-out: Activity (MIC), strain NPAE1288, MDR Clinical isolate): < 16 µg/mL
- MIC (P. aeruginosa [9]; read-out: Activity (MIC), strain NPAE1293, MDR Clinical isolate): < 16 µg/mL
- MIC (P. aeruginosa [9]; read-out: Activity (MIC), strain NPAE1299, MDR Clinical isolate): < 16 µg/mL
- MIC (P. aeruginosa [9]; read-out: Activity (MIC), strain NPAE1302, MDR Clinical isolate): < 16 µg/mL
- MIC (P. aeruginosa [9]; read-out: Activity (MIC), strain NPAE1303, MDR Clinical isolate): < 16 µg/mL
- MIC (P. aeruginosa [9]; read-out: Activity (MIC), strain NPAE1308, MDR Clinical isolate): < 16 µg/mL
- MIC (P. aeruginosa [9]; read-out: Activity (MIC), strain NPAE1310, MDR Clinical isolate): < 16 µg/mL
- MIC (P. aeruginosa [9]; read-out: Activity (MIC), strain NPAE1313, MDR Clinical isolate): > 16 µg/mL
- MIC (P. aeruginosa [9]; read-out: Activity (MIC), strain NPAE1316, MDR Clinical isolate): < 16 µg/mL
- MIC (P. aeruginosa [9]; read-out: Activity (MIC), strain NPAE1323, MDR Clinical isolate): < 16 µg/mL
- MIC (P. aeruginosa [9]; strain NPAE0001, WT Aph(3')-IIb, QC, read-out: Activity (MIC)): < 16 µg/mL
- MIC (P. aeruginosa [9]; strain NPAE0002, WT Aph(3')-IIb, read-out: Activity (MIC)): < 16 µg/mL
- MIC (P. aeruginosa [9]; strain NPAE0359, aph(3')-IIb KO (tetR), read-out: Activity (MIC)): < 16 µg/mL
